Common to all, as to assay: growth of human tumour cells (NCI), 48 h
The subject of experiment [1] is SN12C renal.
Experiment [2] deals with LOX IMVI melanoma.
The subject of experiment [3] is SNB-19 CNS.
Experiment [4] relates to HOP-62 NSCLC.
The test system of experiment [5] is UO-31 renal.
The test system of experiment [6] is UACC-62 melanoma.
The test system of experiment [7] is A498 renal.
Experiment [8] deals with MOLT-4 leukemia.
The test system of experiment [9] is CAKI-1 renal.
Experiment [10] concerns ACHN renal.

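96-well plates; 48 h exposure; 5 concentrations. Endpoints by linear interpolation between flanking doses. Not reached: highest tested concentration assigned. GI50: concentration for 50% inhibition of growth. TGI: concentration producing complete growth inhibition.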

For `Cc1nc2ccccc2c(=O)n1CC(=O)O`, the TGI in [1], in [2], in experiment [3], in [4], in experiment [5] and in experiment [6] was more than 100 µM in each case. The TGI in experiment [7], in experiment [8] and in experiment [9] was more than 100 µM each time.
As for `CC[C@@H](C(=O)[C@@H](C)[C@@H](O)[C@H](C)CCc1ccc(C)c(O)c1C(=O)O)[C@H]1O[C@](CC)([C@H]2CC[C@](O)(CC)[C@H](C)O2)C[C@@H]1C`, the TGI in experiment [10] is 13.2 µM; in experiment [1] it was 10 µM; in experiment [2] it was 12 µM; in experiment [3], 5.95 µM; in experiment [4] it was 4.24 µM; in experiment [5], 12.4 µM. The TGI in [6] came to 4.04 µM; in experiment [7], 2.37 µM; in experiment [8], 3.12 µM; in [9], 11.7 µM.
`Cc1ccc(/C(=C/C=C(C#N)C#N)Sc2cc(Cl)ccc2Cl)cc1`: the TGI in experiment [10] was 10 µM; in [1], 13.9 µM; in [2] it was 3.33 µM; in experiment [3], 22.3 µM; in experiment [4] it was more than 100 µM; in experiment [5] it was more than 100 µM. For the same compound, the TGI in [6] amounted to 15.3 µM; in [9] it was 19.9 µM.
With `O=C(Nc1ccc(Cl)cc1)/C(Cc1cccc[n+]1[O-])=N\Nc1ccc([N+](=O)[O-])cc1[N+](=O)[O-]`, the TGI in experiment [10], in [1], in [2], in experiment [3], in experiment [4] and in [5] was more than 100 µM in each case. Further, the TGI in experiment [6], in [7], in [8] and in experiment [9] was more than 100 µM throughout.
Regarding `CC1(C)CCc2cc3c(-c4ccccc4)cc(=O)oc3cc2O1`, the TGI in experiment [10], in experiment [1], in [2], in experiment [3], in experiment [5] and in experiment [6] was more than 100 µM throughout. For the same compound, the TGI in experiment [7], in experiment [8] and in experiment [9] was more than 100 µM in each case.
Turning to `O=C1Nc2ccccc2Nc2nc3cccccc-3c21`, the TGI in experiment [10], in [1], in experiment [2], in experiment [3], in experiment [4] and in experiment [5] was more than 100 µM each time. The TGI in [6] and in experiment [9] was more than 100 µM throughout.
As for `CCOc1ccc2c(ccc(/C=C\c3cc(C)c4cccnc4c3O)[n+]2C)c1`, the TGI turned out to be 21.4 µM in experiment [10]; 15.5 µM in experiment [1]; 66.4 µM in experiment [2]; 30.7 µM in experiment [3]; 28 µM in experiment [4]; 35.1 µM in experiment [5]. Moreover, the TGI in experiment [6] was found to be 11.4 µM; in experiment [7] it was 9.1 µM; in experiment [8], 10.6 µM; in [9] it was 29.3 µM.
For `c1ccc2c(c1)nc1n2CSC1`, the TGI in [10], in [1], in experiment [2], in experiment [3], in experiment [5] and in experiment [6] was more than 100 µM each time. The TGI in experiment [7], in experiment [8] and in experiment [9] was more than 100 µM each time.
In the case of `O=C(O)c1cc(=O)[nH]c(=S)[nH]1`, the TGI in experiment [10], in experiment [1], in [2], in experiment [3], in [4] and in [5] was more than 100 µM throughout. For the same compound, the TGI in [6], in experiment [7], in [8] and in experiment [9] was more than 100 µM each time.
Take `CN1C2C=C(c3ccccc3)CC1CC2` (stereo unspecified): the TGI in experiment [10], in experiment [1], in experiment [2], in [3], in experiment [5] and in experiment [6] was more than 100 µM in each case. Further, the TGI in experiment [7] and in experiment [8] was more than 100 µM each time.
In the case of `Cc1ccc(S(=O)(=O)Oc2cc(S(=O)(=O)O)cc3cc(S(=O)(=O)O)cc(N)c23)cc1`, the TGI in [10], in [1], in [2], in experiment [3], in experiment [4] and in experiment [5] was more than 100 µM throughout. The TGI in [6], in experiment [7] and in experiment [9] was more than 100 µM throughout.
For `CN1CCN(Cc2ccc(NC(=O)c3ccc(C#N)c(C#Cc4cnc(N)c5ncccc45)c3)cc2C(F)(F)F)CC1`, the GI50 in experiment [10] is 1.69 µM; in experiment [1] it was 2.19 µM; in experiment [3], 3.87 µM; in experiment [5], 1.6 µM; in experiment [6], 1.73 µM; in [7] it was 3.25 µM. For the same compound, the figures for the GI50 in [8] and in [9] were 1.82 µM and 1.91 µM, respectively. For the same compound, the TGI in [10] is 3.15 µM; in [1], 5.43 µM; in experiment [3] it was more than 100 µM; in experiment [5], 2.99 µM; in experiment [6], 3.26 µM; in [7], 10.6 µM. In addition, the results for the TGI in experiment [8] and in [9] were 8.04 µM and 5.04 µM, respectively.
Regarding `[C-]#[O+].[Cl][Sn]([Cl])[Cl].[Cl][Sn]([Cl])[Cl].[Pt].c1ccncc1`, the TGI in experiment [1] is more than 100 µM; in experiment [2], more than 31.6 µM; in [3], more than 100 µM; in experiment [4] it was more than 100 µM; in experiment [5], more than 100 µM; in [6], more than 100 µM. For the same compound, the TGI in experiment [7], in experiment [8] and in experiment [9] was more than 100 µM throughout.
Take `CC(=O)[O-].CC(=O)[O-].[NH2-].[Pt+2].c1ccncc1`: the TGI in experiment [10] was 32.2 µM; in experiment [1], more than 100 µM; in [2] it was more than 100 µM; in experiment [3], more than 100 µM; in [4], more than 100 µM; in experiment [5] it was more than 100 µM. The TGI in [6] was more than 100 µM; in experiment [7], more than 100 µM; in experiment [8], 27.3 µM; in experiment [9], more than 100 µM.
For `Cc1cccc2c(N)c3cccc(C(=O)NCCN(C)C)c3nc12`, the TGI in experiment [10] came out at 6.75 µM; in [1], 0.457 µM; in experiment [2], 0.158 µM; in experiment [4], 0.459 µM; in experiment [5], 0.81 µM; in experiment [6], 0.227 µM. Besides, the results for the TGI in [7] and in [9] were 0.516 µM and 1.08 µM, respectively.
As to `CC(C)=CC(=O)OC1C2C(C)C(=O)OC2C(O)C(C)C2C=CC(=O)C21C` (stereo unspecified), the TGI in experiment [1] was determined as 8.19 µM; in experiment [2], 3.44 µM; in [3], 17.4 µM; in [4] it was 14.7 µM; in [5] it was 10.5 µM; in experiment [6], 4.64 µM. For the same compound, the TGI in experiment [7] was 3.29 µM; in experiment [8] it was 9.71 µM; in [9], 7.71 µM.
On to `CC(C)=CCc1c(C)cc2cc3c(c(O)c2c1O)C(O)=CC(=O)C3(CC=C(C)C)C/C=C(\C)CO` (stereo unspecified), for which the TGI in [1] worked out at 76.8 µM; in experiment [2], 77.4 µM; in [3], 86.2 µM; in experiment [4] it was 64.3 µM; in experiment [5], 64.4 µM; in experiment [6] it was 67.5 µM. For the same compound, the TGI came out at 15.2 µM in experiment [7], 75.7 µM in [8] and 91.3 µM in [9].
As for `CCOP(=O)(OCC)C(Cc1ccc(OC)c(OC)c1)N=C(c1ccccc1)c1ccccc1` (stereo unspecified), the TGI in experiment [10], in experiment [1], in [3], in [5], in [6] and in [7] was more than 100 µM in each case. For the same compound, the TGI in experiment [9] was more than 100 µM.
As to `CCOc1ccc(/C=C/[N+](=O)[O-])cc1`, the GI50 was 12 µM in [10]; 14.7 µM in experiment [1]; 8.95 µM in experiment [3]; 12.5 µM in [4]; 13.8 µM in experiment [5]; 13.8 µM in [6]. Also, the GI50 is 2.79 µM in [7], 5.7 µM in experiment [8] and 37 µM in experiment [9]. Further, the TGI in experiment [10] worked out at 24.3 µM; in experiment [1] it was 28.3 µM; in experiment [3], 22 µM; in experiment [4], 26.3 µM; in experiment [5], 28.8 µM; in experiment [6] it was 27.2 µM. Besides, the results for the TGI in [7], in experiment [8] and in experiment [9] were 11.5 µM, 42.9 µM and more than 100 µM, respectively.
On to `O=C(Nc1nc2ccc([N+](=O)[O-])cc2[n+]([O-])n1)C(F)(F)F`, for which the TGI in [10] was 90.8 µM; in experiment [1] it was more than 100 µM; in experiment [3], more than 100 µM; in experiment [5], more than 100 µM; in experiment [6], 53.1 µM; in [7] it was 65.5 µM. Further, the TGI in [8] is 81.6 µM; in experiment [9], more than 100 µM.
On to `CC1=C[C@]2(CC(C)C3C(CC4(C)C5CCC6C(C)(C)C(=O)CC[C@@]67C[C@@]57CC[C@]34C)O2)OC1=O` (stereo partly specified), for which the TGI was more than 100 µM in [10]; more than 100 µM in experiment [1]; 46.6 µM in [2]; 83.7 µM in experiment [3]; more than 100 µM in [7]; more than 100 µM in experiment [8]. The same compound displayed a TGI in experiment [9] of 62.2 µM.

The values above are taken from PubChem BioAssay (NCI).
